# Experimental data reported in US20240269139A1, “COMPOUNDS FOR TARGETED PROTEIN DEGRADATION OF KINASES” (DANA-FARBER CANCER INSTITUTE, INC., priority 2020, published 2024).
# Where two headings read alike, the source gives them in different places.
# Legend:
# Type in all cases: cell-based
# [1] = biological target: protein kinases (human kinome) (Homo sapiens, UniProt Q2M2I8)
# [2] = biological target: protein kinases (human kinome) (Homo sapiens, UniProt P50750); settings: experiment wp164
# [3] = biological target: T1, protein kinases (human kinome) (Homo sapiens, UniProt O14965)
# T1 sequence (O14965 1-403): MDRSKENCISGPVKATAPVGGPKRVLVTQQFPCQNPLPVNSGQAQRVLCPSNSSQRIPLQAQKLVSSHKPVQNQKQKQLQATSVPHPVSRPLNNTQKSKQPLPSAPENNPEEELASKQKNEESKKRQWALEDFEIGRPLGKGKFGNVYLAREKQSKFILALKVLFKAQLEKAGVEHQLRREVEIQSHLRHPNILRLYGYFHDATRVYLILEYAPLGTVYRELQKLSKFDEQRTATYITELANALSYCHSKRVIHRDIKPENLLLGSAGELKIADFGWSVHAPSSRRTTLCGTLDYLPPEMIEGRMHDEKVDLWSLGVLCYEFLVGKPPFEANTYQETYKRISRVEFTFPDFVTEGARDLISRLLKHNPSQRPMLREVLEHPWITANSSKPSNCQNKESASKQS
# [4] = biological target: T2, protein kinases (human kinome) (Homo sapiens, UniProt P33981); settings: experiment wp164
# T2 sequence (P33981 1-857): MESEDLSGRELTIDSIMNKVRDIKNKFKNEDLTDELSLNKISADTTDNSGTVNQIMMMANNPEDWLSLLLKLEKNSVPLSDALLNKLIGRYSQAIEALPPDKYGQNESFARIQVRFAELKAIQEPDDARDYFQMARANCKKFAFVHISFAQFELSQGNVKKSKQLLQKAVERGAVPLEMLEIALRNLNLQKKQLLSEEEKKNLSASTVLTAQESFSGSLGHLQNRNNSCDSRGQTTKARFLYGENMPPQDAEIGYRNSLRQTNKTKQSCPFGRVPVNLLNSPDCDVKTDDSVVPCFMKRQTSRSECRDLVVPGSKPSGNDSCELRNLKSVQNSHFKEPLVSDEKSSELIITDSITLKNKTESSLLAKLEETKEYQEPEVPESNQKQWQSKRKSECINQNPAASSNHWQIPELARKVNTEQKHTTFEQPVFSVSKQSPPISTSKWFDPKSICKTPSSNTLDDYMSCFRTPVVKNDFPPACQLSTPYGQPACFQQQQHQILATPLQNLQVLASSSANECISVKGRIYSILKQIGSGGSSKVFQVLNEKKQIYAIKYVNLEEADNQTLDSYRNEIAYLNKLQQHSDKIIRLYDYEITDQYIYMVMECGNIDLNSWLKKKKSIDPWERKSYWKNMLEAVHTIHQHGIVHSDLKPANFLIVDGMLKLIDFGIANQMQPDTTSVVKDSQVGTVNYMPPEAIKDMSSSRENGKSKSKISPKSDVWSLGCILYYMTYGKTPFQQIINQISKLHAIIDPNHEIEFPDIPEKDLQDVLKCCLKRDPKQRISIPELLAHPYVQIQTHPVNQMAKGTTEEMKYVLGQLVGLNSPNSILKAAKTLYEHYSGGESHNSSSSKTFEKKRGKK
# [5] = biological target: T3, protein kinases (human kinome) (Homo sapiens, UniProt Q9UEE5); settings: STK17A Q9UEE5; experiment wp088
# T3 sequence (Q9UEE5 1-414): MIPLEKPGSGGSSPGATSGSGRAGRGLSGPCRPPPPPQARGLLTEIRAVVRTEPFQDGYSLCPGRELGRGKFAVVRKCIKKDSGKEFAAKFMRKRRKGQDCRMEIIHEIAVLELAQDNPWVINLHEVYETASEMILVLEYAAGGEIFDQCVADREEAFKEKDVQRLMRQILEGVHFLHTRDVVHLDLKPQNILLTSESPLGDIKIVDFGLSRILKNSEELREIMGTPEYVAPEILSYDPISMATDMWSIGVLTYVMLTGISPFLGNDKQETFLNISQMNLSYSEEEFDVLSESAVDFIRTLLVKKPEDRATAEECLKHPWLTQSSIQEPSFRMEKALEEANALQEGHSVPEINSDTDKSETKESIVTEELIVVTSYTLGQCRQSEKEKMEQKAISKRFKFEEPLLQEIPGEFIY
# [6] = biological target: protein kinases (human kinome) (Homo sapiens, UniProt Q96GD4); settings: experiment wp164
# protein kinases (human kinome) (Homo sapiens, UniProt Q96GD4), sequence (Q96GD4 whole entry): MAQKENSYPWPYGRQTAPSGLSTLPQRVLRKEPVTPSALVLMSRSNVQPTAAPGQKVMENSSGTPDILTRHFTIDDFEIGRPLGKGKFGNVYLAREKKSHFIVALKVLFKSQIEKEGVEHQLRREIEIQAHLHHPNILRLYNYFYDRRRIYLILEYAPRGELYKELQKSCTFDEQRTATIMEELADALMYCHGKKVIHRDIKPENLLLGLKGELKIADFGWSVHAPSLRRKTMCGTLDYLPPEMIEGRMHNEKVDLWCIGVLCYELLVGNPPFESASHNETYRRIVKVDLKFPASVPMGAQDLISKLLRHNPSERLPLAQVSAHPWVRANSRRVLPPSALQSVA
# [7] = biological target: protein kinases (human kinome) (Homo sapiens, UniProt Q9HBU6); settings: protein ETNK1 (Q9HBU6-1); experiment wp088; down
# protein kinases (human kinome) (Homo sapiens, UniProt Q9HBU6), sequence (Q9HBU6 whole entry): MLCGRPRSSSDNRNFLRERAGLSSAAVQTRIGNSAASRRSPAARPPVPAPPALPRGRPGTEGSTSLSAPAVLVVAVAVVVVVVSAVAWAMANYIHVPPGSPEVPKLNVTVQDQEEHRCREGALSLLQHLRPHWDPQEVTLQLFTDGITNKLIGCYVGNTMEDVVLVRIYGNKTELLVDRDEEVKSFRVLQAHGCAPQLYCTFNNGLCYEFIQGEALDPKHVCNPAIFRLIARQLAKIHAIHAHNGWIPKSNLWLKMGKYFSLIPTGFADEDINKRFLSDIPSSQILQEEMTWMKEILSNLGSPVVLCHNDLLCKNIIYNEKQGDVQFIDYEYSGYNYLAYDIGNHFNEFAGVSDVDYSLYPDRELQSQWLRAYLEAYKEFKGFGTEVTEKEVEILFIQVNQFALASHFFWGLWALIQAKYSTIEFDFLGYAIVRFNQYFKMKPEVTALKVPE
# [8] = system: protein kinases (human kinome)
# [9] = biological target: protein kinases (human kinome) (Homo sapiens, UniProt Q00534); settings: for logFC CDK6: CDK6 (Q00534), direction down; for logFC of CDK6 (Q00534): down
# protein kinases (human kinome) (Homo sapiens, UniProt Q00534), sequence (Q00534 whole entry): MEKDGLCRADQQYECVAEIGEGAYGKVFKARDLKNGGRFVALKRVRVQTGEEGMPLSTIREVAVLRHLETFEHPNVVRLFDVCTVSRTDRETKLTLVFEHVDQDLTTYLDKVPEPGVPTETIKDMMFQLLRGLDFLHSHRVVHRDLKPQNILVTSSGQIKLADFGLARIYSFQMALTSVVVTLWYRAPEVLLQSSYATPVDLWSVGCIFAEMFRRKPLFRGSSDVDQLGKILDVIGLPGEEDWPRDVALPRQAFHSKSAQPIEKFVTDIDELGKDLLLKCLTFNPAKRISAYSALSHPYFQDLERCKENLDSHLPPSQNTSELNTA
# [10] = AURKB Q96GD4-5, experiment wp088
# protein kinases (human kinome) (Homo sapiens, UniProt Q2M2I8), sequence (Q2M2I8 whole entry): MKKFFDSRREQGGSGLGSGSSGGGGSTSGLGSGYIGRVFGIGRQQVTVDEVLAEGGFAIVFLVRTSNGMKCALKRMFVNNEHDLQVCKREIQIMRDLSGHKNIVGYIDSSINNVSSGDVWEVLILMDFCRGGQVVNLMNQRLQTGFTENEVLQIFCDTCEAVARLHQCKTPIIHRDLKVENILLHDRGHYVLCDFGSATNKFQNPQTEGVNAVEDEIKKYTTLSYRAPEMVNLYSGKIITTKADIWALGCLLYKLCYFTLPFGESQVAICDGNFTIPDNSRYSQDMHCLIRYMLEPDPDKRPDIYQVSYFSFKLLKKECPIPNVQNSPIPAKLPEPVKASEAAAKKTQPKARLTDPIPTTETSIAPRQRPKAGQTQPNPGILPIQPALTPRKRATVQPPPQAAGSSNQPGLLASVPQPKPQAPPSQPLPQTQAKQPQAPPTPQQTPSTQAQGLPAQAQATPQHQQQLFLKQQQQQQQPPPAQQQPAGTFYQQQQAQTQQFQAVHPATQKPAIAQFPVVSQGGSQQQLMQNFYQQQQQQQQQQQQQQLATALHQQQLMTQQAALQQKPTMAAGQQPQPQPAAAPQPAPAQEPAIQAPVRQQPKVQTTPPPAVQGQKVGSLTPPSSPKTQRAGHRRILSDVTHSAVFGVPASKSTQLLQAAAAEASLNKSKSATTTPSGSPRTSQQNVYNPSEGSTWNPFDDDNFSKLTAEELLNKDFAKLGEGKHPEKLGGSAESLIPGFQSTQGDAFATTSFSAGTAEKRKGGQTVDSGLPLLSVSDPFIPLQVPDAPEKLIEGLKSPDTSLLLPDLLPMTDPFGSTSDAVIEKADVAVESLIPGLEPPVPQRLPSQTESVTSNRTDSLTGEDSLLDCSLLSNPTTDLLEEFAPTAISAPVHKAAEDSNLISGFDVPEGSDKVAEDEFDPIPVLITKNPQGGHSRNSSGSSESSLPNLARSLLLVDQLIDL
# protein kinases (human kinome) (Homo sapiens, UniProt P50750), sequence (P50750 whole entry): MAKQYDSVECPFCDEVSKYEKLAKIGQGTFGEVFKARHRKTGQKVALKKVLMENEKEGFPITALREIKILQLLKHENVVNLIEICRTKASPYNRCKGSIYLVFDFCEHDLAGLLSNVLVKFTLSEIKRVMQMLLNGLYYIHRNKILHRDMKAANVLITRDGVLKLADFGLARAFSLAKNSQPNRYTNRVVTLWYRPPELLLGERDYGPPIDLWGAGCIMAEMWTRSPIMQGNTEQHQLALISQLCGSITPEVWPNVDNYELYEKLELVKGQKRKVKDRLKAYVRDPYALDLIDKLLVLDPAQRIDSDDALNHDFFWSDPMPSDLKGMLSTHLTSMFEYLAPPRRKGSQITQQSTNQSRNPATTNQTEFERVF
smiles,measurement,setting,value
O=C(CCCCCCNC(=O)COc1cccc2c1C(=O)N(C1CCC(=O)NC1=O)C2=O)NCCOc1ccc(Nc2ncc3ccc(=O)n(C4CC5CCC4C5)c3n2)cc1 (centres unmarked) [SB1.G.194],logFC AAK1,"[1]; AAK1 (Q2M218-1), experiment wp088, down",−0.3482
same,logFC AAK1,"[1]; AAK1 (Q2M218-1), experiment wp164, down",−0.379
same,logFC AAK1,"[1]; AAK1, accession Q2M218-1, experiment wp088, direction of change down",−0.3482
same,logFC AAK1,"[1]; AAK1, accession Q2M218-1, experiment wp164, direction of change down",−0.379
same,logFC CDK9 (P50750),[2],−0.8391
same,logFC of CDK9 (P50750),[2],−0.8391
same,logFC AURKA (O14965),[3]; experiment wp088,−1.175
same,logFC AURKA (O14965),[3]; experiment wp164,−2.035
same,logFC TTK,[4]; Accession P33981,−0.4279
same,logFC TTK (P33981),[4],−0.4279
same,logFC,[5],−0.6434
same,logFC STK17A,[5],−0.6434
same,logFC AURKB,[6]; AURKB Q96GD4,−0.4883
same,logFC of AURKB (Q96GD4),[6],−0.4883
same,logFC ETNK1,[7],−0.3662
same,logFC,[8]; [10],−0.3846
same,logFC AURKB,[8]; [10],−0.3846
same,logFC FGFR2 (P21802-11),"[8]; Experiment wp088, direction of change down",−0.4804
same,logFC FGFR2,"[8]; protein FGFR2 (P21802-11), experiment wp088, down",−0.4804
same,logFC CDK6,[9]; experiment wp088,−0.4731
same,logFC CDK6,[9]; experiment wp164,−1.23
same,logFC of CDK6 (Q00534),[9]; Experiment wp088,−0.4731
same,logFC of CDK6 (Q00534),[9]; Experiment wp164,−1.23
